Experiments:
Format in all cases: cell-based, human
[1] = test system: T cells in PBMCs; assay: IFN-γ release by ELISA from PBMC stimulated with peptides or protein; conditions: for IFN-γ release (OD values): stimulated PBMC, FIG. 21A
From the text: FIG. 17. T cell stimulation by HERV-K peptides. Peptides (p73-76 and p18-135) or HERV-K SU fusion proteins were used to stimulate PBMC and evaluated in vitro for their ability to stimulate T cells in PBMCs from healthy subjects (ND1007083; left) and/or cancer patients (BC 243; right), based on interferon-γ(IFN-γ) release by ELISA. KLH peptide and GST protein were used as controls. Other negative controls included media only, DMSO, and PBS.
FIG. 18. T cell stimulation by HERV-K peptides. Peptides (p73-76: left; and p18-135: middle) or HERV-K SU fusion proteins (right) were used to stimulate PBMC and evaluated in vitro for their ability to stimulate T cells in PBMCs from healthy subjects and/or cancer patients (BC 243; middle), based on interferon-γ (IFN-γ) release by ELISA. OD values of interferon-γ (IFN-γ) release were compared between normal donors (ND447549, ND1001366, and ND1007083) and cancer patients (OC222, OC 210, OC212, and BC243). OC is ovarian cancer and BC is breast cancer
FIGS. 21A-C. T Cell Stimulation. 9 mer Peptides (HERVK-3, HERVK-4, HERVK-11, and HERVK-18; see Table 1), p73-76 and p18-135 (Table 1 178 and 179), or HERV-K SU fusion proteins were used to stimulate PBMC and evaluated in vitro for their ability to stimulate T cells in PBMCs from healthy subjects and/or cancer patients, based on IFN-γ and Granzyme B release by ELISA. (FIG. 21A) OD values of IFN-γ release were compared in a normal donor (ND291812). (FIG. 21B) OD values of IFN-γ release were compared between a normal donor (ND291817) and an ovarian cancer patient (OC153). (FIG. 21C) OD values of Granzyme B release were compared between a normal donor (ND291817) and an ovarian cancer patient (OC153). Each dot represents an individual clone. Negative controls measured release of effector molecules from cancer cells after treatment with supernatants obtained from PBMCs without stimulation with HERV-K peptides or protein; positive controls were stimulated with PMA/ONO.
Cancer patients were enrolled to evaluate HERV-K as a tumor associated antigen target. Patients provided written informed consent as part of an approved protocol (LAB04-0083) at MD Anderson Cancer Center prior to commencing the studies. Normal healthy donor control blood samples were obtained from Gulf Coast Regional Blood Center, Houston Tex. 40 mL of peripheral blood was obtained from each patient, and peripheral blood mononuclear cells (PBMCs) were isolated by density gradient centrifugation using Histopaque-1077 (Sigma-Aldrich; USA). HLA-A*02 expression in PBMCs obtained from cancer patients and healthy subjects was determined by flow cytometry with PE Mouse anti-human HLA-A2 mAb BB7.2 (BD Pharmingen; San Diego, Calif., USA). Mouse IgG2b was used as an isotype control. PBMCs (5×10^5 cells/well) from either healthy subjects or cancer patients were incubated with Peptide #18-135 ([…]; SEQ ID NO: 178), Peptide #73-76 ([…]; SEQ ID NO: 179) or KLH as control peptide) or proteins (HERV-K env SU protein or GST protein as control) at concentrations of 40 μg/mL in 96-well U-bottom microplates (BD; Franklin Lakes, N.J., USA) in 100 μL of T-cell medium (TCM), consisting of RPMI 1640 (Mediatech; Manassas, Va., USA), 10% human AB serum (Valley Biomedical, Winchester, USA), […] 2-mercaptoethanol, 100 IU/mL interleukin-2 (IL-2), and 0.1 mM MEM nonessential amino acid solution (Invitrogen; Grand Island, N.Y., USA). Half of the TCM was removed and replaced with fresh TCM containing peptides (20 μg/mL) on day 7. After 14 days of culture, the supernatants from cell culture media (PBMC pulsed with peptides or proteins) were harvested and tested for their ability to produce IFN-gamma or IL-2, and granzyme B release was also determined by enzyme-linked immunosorbent assay (ELISA) assay. In order to detect the secreted cytokine in this assay, high-binding plates were coated with 5 μg/ml anti-IFN-γ (Mabtech, Stockholm, Sweden) diluted in PBS buffer at 4° C. overnight. […]

[2] = test system: T cells in PBMCs; assay: Granzyme B release by ELISA from PBMC stimulated with peptides or protein; conditions: breast cancer patient (BC243) vs 3 normal donors
From the text: (§1) FIG. 19. T cell stimulation by HERV-K peptides. Peptides (p73-76 and p18-135) or HERV-K SU fusion proteins were used to stimulate PBMC and evaluated in vitro for their ability to stimulate T cells in PBMCs from healthy subjects and/or cancer patients, based on Granzyme B (Top panel) and interlukin-2 (IL-2; bottom panel) release by ELISA. OD values of Granzyme B or IL-2 release were compared between normal donors (ND427478, ND329966, and ND341277) and cancer patients (BC243 and OC212).
(§2) Cancer patients were enrolled to evaluate HERV-K as a tumor associated antigen target. Patients provided written informed consent as part of an approved protocol (LAB04-0083) at MD Anderson Cancer Center prior to commencing the studies. […] HLA-A*02 expression in PBMCs obtained from cancer patients and healthy subjects was determined by flow cytometry with PE Mouse anti-human HLA-A2 mAb BB7.2 (BD Pharmingen; San Diego, Calif., USA). […] After 14 days of culture, the supernatants from cell culture media (PBMC pulsed with peptides or proteins) were harvested and tested for their ability to produce IFN-gamma or IL-2, and granzyme B release was also determined by enzyme-linked immunosorbent assay (ELISA) assay. […] Absorbance was measured after 10 min of incubation in the dark and the plate was read on a Wallac Victor 2 V Microplate Reader (PerkinElmer, Waltham, Mass.). […]

[3] = test system: T cells in PBMCs; assay: IL-2 release by ELISA from PBMC stimulated with peptides or protein; conditions: normal donors vs cancer patients
From the text: as §1, §2

[4] = test system: IVS cells; assay: IFN-γ ELISPOT of IVS cells stimulated with HERV-K SU or TM antigen; conditions: ovarian cancer patient compared with normal female donor(s)
From the text: FIGS. 2A-D. IFN-γ ELISPOT was used to determine HERV-K-specific T cell response. (FIG. 2A) More spots (red box) were detected in IVS cells (DC+KSU) from an ovarian cancer patient with moderately to poorly differentiated adenocarcinoma, in comparison to three normal female donors (ND263559, 273010, and 273011; black boxes) stimulated with a single HERV-K SU protein. […] (FIG. 2B) More spots (red box for KSU and green box for KTM) were detected in IVS cells (DC+KSU) from an ovarian cancer patient (Acc 153) with high grade papillary serous carcinoma before surgery (0 month) or after surgery (6 months), compared to one normal donor (ND 273011) stimulated one time with HERV-K SU protein. IVS cells were generated from PBMC stimulated with a single HERV-K SU or TM antigen. No spot was detected in controls using KLH as antigen. (FIG. 2C) IFN-γ spots were detected in IVS cells (1×10^5 cells loaded) from cancer patients (#816463 and #618329: blood collected 6 months after surgery) but not in a breast cancer patient with invasive ductal carcinoma (#814349, collected 6 months after surgery) or a patient (717335) with a mass (no malignancy identified), stimulated one time with either HERV-K SU (surface domain of env protein) or TM (transmembrane domain) protein. DC pulsed with KLH served as control. […]

Substance: IINLILILVCLFCLLLVCRCTQQLR [Peptide #18-135]
- IFN-γ release ([1]; peripheral T cells from both healthy subjects (ND1007083) and cancer patients (BC 243)): induce IFN-γ release
- IFN-γ release (OD values) [1]: Higher IFN-γ release
- granzyme B release [2]: to a greater extent than in 3 normal donors
- IL-2 release [3]: in normal donors to a greater extent than in cancer patients

Substance: SQTITCENCRLLSCIDSTFNWQHRILL [Peptide #73-76]
- IFN-γ release ([1]; peripheral T cells from most cancer patients (OC222, OC210, OC212, BC 243)): induce IFN-γ release
- IFN-γ release (OD values) [1]: Higher IFN-γ release
- granzyme B release [2]: to a greater extent than in 3 normal donors
- IL-2 release [3]: in normal donors to a greater extent than in cancer patients

Substance: keyhole limpet hemocyanin [KLH]
- number of IFN-γ spots in IVS cells [4]: No spots were detected

— patent publication US20150250864A1, “ANTI-CANCER VACCINES” (Board of Regents, The University of Texas System, priority 2012, published 2015)
